Reference: PubChem BioAssay AID1996
Converted amounts (≈) assume the structure as drawn.

conditions: buffer; pH 7.4; 200.0 µM

SMILES	solubility kinetic [µg/mL]
Nc1ccccc1N=c1ssnc1Cl	> 36.6
CCOc1ccccc1NC(=S)NC1CC2CCC1C2 (centres undefined)	5 (≈ 17.2 µM)
COC(=O)c1cc(OCC(=O)Nc2ccc3c(c2)CCC3)cc(C(=O)OC)c1	3 (≈ 7.82 µM)
CNC(=O)C1=C(C)Nc2nc3ccccc3n2C1c1ccc(F)cc1 (centres undefined)	48.9 (≈ 145 µM)
Cc1ccc(F)cc1N=Cc1c(O)c2ccccc2oc1=O	< 0.6
COc1ccc(NS(=O)(=O)c2cc(NC(=O)c3cncc(Br)c3)ccc2OC)cc1	21.9 (≈ 44.5 µM)
Cc1ccc(N(CC2CO2)S(=O)(=O)c2ccccc2[N+](=O)[O-])cc1 (centres undefined)	36.7 (≈ 105 µM)
O=[N+]([O-])c1ccc(O)c2ncccc12	> 28.5
CCN1CCN(C(=O)COc2ccc3oc4c(c3c2)CCCC4)CC1	> 51.4
CC(C)(O)C(=O)NNC(=S)NCc1ccco1	> 38.6
O=C(Nc1ccc(F)cc1)c1cccnc1Oc1ccccc1	4.3 (≈ 13.9 µM)
N#CC1=C(S)N(c2ccccc2)C(c2ccco2)NC1=O (centres undefined)	37 (≈ 124 µM)
Cc1nc(SCC(N)=O)c(C#N)c(C)c1C	4.4 (≈ 18.7 µM)
Cc1cc2sc(NC(=O)c3ccco3)nc2cc1Cl	0.6 (≈ 2.05 µM)
CC(C)(C)c1ccc(OCC(=O)NCCN2CCOCC2)cc1.Cl	53
CN(C)c1ccc(N=Cc2cccn2C)cc1	> 34.1
CCN(CC)c1ccc(CNCc2cccs2)cc1.Cl	44.2
Cl.NCCc1nnc(SCc2ccccc2Cl)o1	> 45.9
CCCCCCCCCCCCCCCC[N+](C)(C)CC.[Br-]	34.5
CC1(CCCN2C(=O)c3ccccc3C2=O)OCCO1	> 41.3
CC(C)CNC(C)C(=O)Nc1ccc(S(N)(=O)=O)cc1 (centres undefined)	> 44.9

SMILES	solubility kinetic [µg/mL]
CCc1ccc2nc(NC(=O)CN3C(=O)NC4(CCCC4)C3=O)sc2c1	2.6 (≈ 6.98 µM)
Cc1ccc(CNc2ccc3c(c2)nc(C)n3C)cc1	38.3 (≈ 144 µM)
CC(Oc1cccnc1[N+](=O)[O-])C(=O)Nc1ccc(F)cc1 (centres undefined)	> 45.8
COc1cccc(C(=O)NCCSc2c(C)[nH]c3ccccc23)c1OC	16.1 (≈ 43.5 µM)
Cc1nc(NC(=O)c2ccc(Br)o2)ccc1Br	< 0.4
O=C(NC(=S)N1CCCCCC1)c1cccc([N+](=O)[O-])c1	> 46.1
Cc1ccc(C)c(Nc2cc(C)nc3ccccc23)c1	> 39.4
O=C(Nc1ccccc1)C1CCCN1/C=C/C(=O)C(F)(F)F (centres undefined)	> 46.8
Cc1cccc(C)c1NC(=O)CNC(=O)c1cnccn1	> 42.6
O=S(=O)(NC1CCCCC1)c1ccc(N2CCOCC2)nc1	> 48.8
COc1cc(C)ccc1OCC(=O)OCC(=O)c1ccc[nH]1	> 45.5
Cc1nc2sc(C(=O)Nc3ccccc3)c(N)c2c(C)c1[N+](=O)[O-]	0.8 (≈ 2.34 µM)
Cc1ccc(N=C2NC(=O)/C(=C/c3cccn3C)S2)cc1C	0.9 (≈ 2.89 µM)
Cc1cc(/C=C2/NC(=O)NC2=O)c(C)n1-c1ccc(C#N)cc1	8.4 (≈ 27.4 µM)
CC(=O)OC1CC(c2cc(C(C)(C)C)c(O)c(C(C)(C)C)c2)=NO1 (centres undefined)	7.7 (≈ 23.1 µM)
CSc1sc(C(=O)N(C)C)cc1S(=O)(=O)C(C)C	> 46.1
CCCN(CCC)CC(C)(C)NS(=O)(=O)c1ccc(Cl)cc1	39.6 (≈ 114 µM)
COc1cc2c(cc1OC)C(COc1ccc(C(C)C)cc1)NCC2 (centres undefined)	35.1 (≈ 103 µM)
Cc1ccccc1C(=O)Nc1nc2c(C)csc2c(=O)s1	< 0.3
COc1ccc(-c2nc3ccccc3c(=O)n2CC(C)C)cc1	38.3 (≈ 124 µM)
COc1cc(N/C(N)=N/c2nc(C)cc(C)n2)cc(OC)c1	> 45.2

SMILES	solubility kinetic [µg/mL]
CC(C)c1nc2cc(C(=O)NC(C)c3cnn(C)c3)ccc2o1 (centres undefined)	> 46.9
Nc1cc(=O)[nH]c(SCC(=O)Nc2cccc(S(=O)(=O)N3CCCCCC3)c2)n1	11.7 (≈ 26.7 µM)
Cc1ccc(C)c(Oc2cc(F)nc(N)n2)c1	> 35
Cc1cccc(S(=O)(=O)c2c(C)cc(C)[nH]c2=O)c1	> 41.6
CC(C)(C)C(=O)N/C(N)=N/c1nc2ccccc2o1	8.1 (≈ 31.1 µM)
CCOC(=O)C1=C(Nc2ccc(OC)cc2)OCC1=O	39.5 (≈ 142 µM)
COCCCNC(=O)c1cn(C)c(=O)c2c1c1ccccc1n2C	19.8 (≈ 60.5 µM)
Oc1ccc(C=NC2CCCCC2)cc1	16.6 (≈ 81.7 µM)
COc1cc(SC)ccc1C(=O)OCC(=O)NC1CCCCC1	2.2 (≈ 6.52 µM)
CC(NC(=O)C1CCCC1)c1ccc(Br)cc1 (centres undefined)	33.4 (≈ 113 µM)
Cc1cc(C(C)(C)C)cc(C)c1COC(=O)CN1C(=O)NC2(CCCC2)C1=O	13.3 (≈ 34.4 µM)
COc1ccc(C(=O)Nc2nccs2)cc1	8.1 (≈ 34.6 µM)
Cc1cccc(C)c1OCCCCN1CCCCC1.O=C(O)C(=O)O	45.4
CC(C)[N+]1=C2C=CC=CC=C2SC12C([N+](=O)[O-])=CC(=[N+]([O-])[O-])C=C2[N+](=O)[O-] (centres undefined)	1.3 (≈ 3.33 µM)
Nc1nc2c(s1)CCCCCCCCCC2	6.6 (≈ 27.7 µM)
O=C(NC(=S)Nc1cccnc1Cl)c1ccco1	32.2 (≈ 114 µM)
CC1=C(C(=O)OCC2CCCCC2)C(c2ccccc2F)NC(=O)N1 (centres undefined)	0.6 (≈ 1.73 µM)
Cc1ccc(NC2CC(=O)N(c3cccc([N+](=O)[O-])c3)C2=O)cc1 (centres undefined)	39 (≈ 120 µM)
CSc1ccc(CN(C)C(C)C(=O)NCC2CCCCC2)cc1 (centres undefined)	28.3 (≈ 84.6 µM)
CCC(=O)c1c[nH]c(C(=O)NCc2cccnc2)c1	> 38.6

More lines, now with the values ahead:

solubility kinetic [µg/mL]	SMILES
> 42.2	CC(=O)NC(C)(CC(=O)c1ccccc1)c1ccccc1 (centres undefined)
6.1 (≈ 18.4 µM)	O=C1c2ccccc2C(=O)N1CC(O)COc1ccc(Cl)cc1 (centres undefined)
> 47.4	Cc1c(C(=O)O)c(C(=O)O)nc2ccc(N3CCOCC3)cc12
61.7 (≈ 142 µM)	CN(CC(=O)N1CCN(Cc2ccccc2)CC1)C(=O)Cc1ccc(Cl)c(Cl)c1
1.7 (≈ 5.72 µM)	COC(=O)c1ccc(N2CCN(c3ccccc3)CC2)nc1
7.4 (≈ 19.6 µM)	COCCn1c(SCC(=O)Nc2cccnc2Cl)nc2ccccc21
> 53.1	O=C(Cc1ccc(Br)cc1)OCC(=O)N1CCCCCC1
30.3 (≈ 72.9 µM)	CC(=O)Nc1ccc(S(=O)(=O)N[C@@H](C)C(=O)NC2CCCc3ccccc32)cc1 (some centres undefined)
> 48.8	CCCc1nnc(NC(=O)CS(=O)(=O)c2ccccc2)s1
< 0.1	Cc1ccc(Nc2ncnc(-n3cccc3)n2)cc1Cl
> 45	O=C(CNC(=O)c1ccccc1F)N/N=C/c1cccnc1
> 44.7	CN1CCN(C(=S)NC(=O)c2ccccc2Cl)CC1
5.5 (≈ 17.1 µM)	COc1cccc(CNC(=S)Nc2ccc(Cl)cc2C)c1
20.4 (≈ 62.5 µM)	CN(C)c1ccc(NC(=O)c2ccc(N3CCOCC3)nc2)cc1
25.1 (≈ 60.3 µM)	Cc1ccc(S(=O)(=O)N2CCOCC2)cc1C(=O)NC(C)CCc1ccccc1 (centres undefined)
46.3 (≈ 139 µM)	CC(C)(C#CC(O)(c1ccccc1)c1ccccc1)N1CCCCC1
7.5 (≈ 26.7 µM)	CCc1ccc(NC(=O)CCC(=O)c2ccccc2)cc1
2.8 (≈ 7.85 µM)	CCN(CC(=O)NCc1ccc(Cl)cc1)C(=O)/C=C/c1ccccc1
0.5 (≈ 1.68 µM)	CCN(CC)c1ccc(C(=S)NCc2ccccc2)cc1

solubility kinetic [µg/mL]	SMILES
24.8 (≈ 130 µM)	O=C(Oc1ccccc1)N1CCCC1
52.2 (≈ 129 µM)	NC(N)=NCCCC(NC(=O)c1ccccc1)C(=O)Nc1ccc2ccccc2c1 (centres undefined)
< 0.8	O=c1c(C/C=C/c2ccccc2)c(O)ccn1Cc1cccc(Cl)c1
> 42.2	Cc1ccc(OCC(=O)N2CCc3ccccc3C2)cc1
33.9 (≈ 105 µM)	CC(=O)Nc1ccc(-c2csc(NCc3ccccc3)n2)cc1
> 49.3	CCOc1ccc(NC(=O)C2CC(=O)N(Cc3ccco3)C2)cc1 (centres undefined)
1 (≈ 3.15 µM)	CCCNC(=O)c1cnc(-c2ccccc2)nc1-c1ccccc1
0.9 (≈ 2.72 µM)	CC1(C)c2ccccc2N2CC(=O)N[C@@]21/C=C/C=C/c1ccccc1
52.6 (≈ 146 µM)	O=C(Nc1ccccc1)c1ccccc1NC(=O)c1ccccc1C(=O)O
< 0.2	COc1nc2ccccc2nc1N1CCN(c2ccc(F)cc2)CC1
< 0.7	O=C(Nc1ccccc1)c1ccc(OC(=O)c2ccccc2)cc1
1.2 (≈ 3.8 µM)	CC(C)c1ccc(CN2C(=O)c3ccccc3S2(=O)=O)cc1
27.2 (≈ 84.9 µM)	COc1cccc(NC(=O)C(Cc2ccccc2)n2cccc2)c1 (centres undefined)
> 47.6	COc1ccccc1CNC(=O)COc1cccnc1[N+](=O)[O-]
39.5 (≈ 109 µM)	COc1ccccc1C(=O)C1CCCN(Cc2cccc3nccnc23)C1 (centres undefined)
> 34.4	O=C(O)c1cnc2[nH]c3ccccc3n2c1=O
> 46.9	Cc1cccc(CC(=O)N2CCN(C(=O)c3ccco3)CC2)c1
24.9	COc1ccc2nc(N(CCN(C)C)C(=O)c3ccc4ccccc4c3)sc2c1.Cl
0.8 (≈ 2.65 µM)	O=C(c1ccccc1)N(Cc1ccccc1)Cc1ccccc1

solubility kinetic [µg/mL]	SMILES
> 40.4	Cc1ccnc(NC(=O)CNC(=O)c2ccccc2)c1
5.2 (≈ 14.4 µM)	O=C(COC(=O)c1ccc2c(c1)OCCO2)NCc1ccccc1Cl
> 46.4	COc1ncnc(OC)c1S(=O)(=O)NCc1ccccc1
25.4 (≈ 76.2 µM)	CN(CC(=O)Nc1ccc(Br)cc1)Cc1ccccc1
12.3 (≈ 68.3 µM)	c1ccc2nc3ccccc3nc2c1
> 47.8	Cc1cc(S(=O)(=O)NCCN2CCOCC2)ccc1Cl
18.7 (≈ 74.1 µM)	CC(=O)Nc1ccc(N2Cc3ccccc3C2)cc1
> 45.2	Cc1cccc(OCc2ccc(C(=O)N3CCOCC3)o2)c1
40.4 (≈ 100 µM)	COc1ccc(C(=O)Nc2cccc(S(=O)(=O)NC3=NCCC3)c2)cc1OC
39.5 (≈ 138 µM)	O=C(O)c1ccccc1N1C(=O)C2C3CCC(C3)C2C1=O (centres undefined)
38.8 (≈ 120 µM)	O=C(/C=C/c1ccc(Cl)c(Cl)c1)NCCCn1ccnc1
9.9 (≈ 21.8 µM)	COc1ccc(CCC(=O)OCc2csc(CC(=O)Nc3ccc(C)cc3)n2)cc1OC
< 0.7	O=C(COc1ccccc1Cl)Nc1ccc2oc(=O)ccc2c1
< 0.4	COc1cc(NC(=O)c2ccccc2)c(OC)cc1NC(=O)Cc1ccc(F)cc1
> 38.3	Cc1nc2oc3ccccc3c(=O)c2cc1C(=O)O
> 50.8	CC1CCN(C(=O)/C(=C\c2ccco2)NC(=O)c2ccccc2)CC1
< 0.3	COc1ccccc1NC(=O)Nc1ccc2c(c1)CCC2
40.6	Cc1c(CCOC(=O)c2ccc(Cl)cc2Cl)sc[n+]1CC(=O)c1ccc(Br)cc1.[Br-]
> 44	Nc1ccc[n+](CC(=O)c2ccccc2)c1.[Br-]
